Results taken from patent publication US4312867A, “Antibacterial compounds, processes for their preparation and compositions containing them” (Beecham Group Limited, priority 1979, dated 1982).
Values after ≈ are worked out from the molar mass of the structure shown.

System: E. coli E1
Assay: MIC veterinary bacteria (Table 2), serial dilution in agar
Assay type: cell-based
Settings: Escherichia coli, diagnostic sensitivity test agar

SMILES	MIC [µg/mL]
C/C(=C\C(=O)OCCCCCCS(N)(=O)=O)CC1OCC(CC2OC2C(C)C(C)O)C(O)C1O (stereo not shown) [Example 2, 6-Sulphamoylhexyl monate A]	> 80

System: Strep pneumoniae CN33
Assay: MIC human bacteria (Table 1), serial dilution in nutrient agar
Assay type: cell-based
Settings: nutrient agar with 5% chocolated horse blood

SMILES	MIC [µg/mL]
C/C(=C\C(=O)OCCCCCCS(N)(=O)=O)CC1OCC(CC2OC2C(C)C(C)O)C(O)C1O (stereo not shown) [Example 2, 6-Sulphamoylhexyl monate A]	0.2 (≈ 0.394 µM)

System: Corynebacterium xerosis 9755
Assay: as above
Assay type: cell-based
Settings: nutrient agar with 5% chocolated horse blood, read-out: MIC

SMILES	MIC [µg/mL]
C/C(=C\C(=O)OCCCCCCS(N)(=O)=O)CC1OCC(CC2OC2C(C)C(C)O)C(O)C1O (stereo not shown) [Example 2, 6-Sulphamoylhexyl monate A]	> 100

System: Bord bronchiseptica B08
Assay: MIC veterinary bacteria (Table 2), serial dilution in agar
Assay type: cell-based
Settings: diagnostic sensitivity test agar

SMILES	MIC [µg/mL]
C/C(=C\C(=O)OCCCCCCS(N)(=O)=O)CC1OCC(CC2OC2C(C)C(C)O)C(O)C1O (stereo not shown) [Example 2, 6-Sulphamoylhexyl monate A]	20 (≈ 39.4 µM)

System: not listed separately
Assay: Serum binding by ultrafiltration of porcine serum
Assay type: in vitro ADME
Settings: pig, 8 mcg/ml, microbiological assay, read-out: % bound to pig serum (converted)
Description: Serum binding was assessed by ultrafiltration of porcine serum containing compounds at 8 mcg/ml, and through an Amicon CF50A ultrafiltration cone. Separation of ultrafiltrate was achieved by centrifugation. Unbound concentrations of compound were measured in the ultrafiltrate by microbiological assay (B. subtilis ATCC 6633) against standards prepared in saline.

SMILES	fraction unbound
C/C(=C\C(=O)OCCCCCCS(N)(=O)=O)CC1OCC(CC2OC2C(C)C(C)O)C(O)C1O (stereo not shown) [Example 2, 6-Sulphamoylhexyl monate A]	0.287

System: K. aerogenes A
Assay: MIC human bacteria (Table 1), serial dilution in nutrient agar
Assay type: cell-based
Settings: Klebsiella aerogenes, nutrient agar with 5% chocolated horse blood

SMILES	MIC [µg/mL]
C/C(=C\C(=O)OCCCCCCS(N)(=O)=O)CC1OCC(CC2OC2C(C)C(C)O)C(O)C1O (stereo not shown) [Example 2, 6-Sulphamoylhexyl monate A]	> 100

System: Past multocida PA1
Assay: MIC veterinary bacteria (Table 2), serial dilution in agar
Assay type: cell-based
Settings: diagnostic sensitivity test agar

SMILES	MIC [µg/mL]
C/C(=C\C(=O)OCCCCCCS(N)(=O)=O)CC1OCC(CC2OC2C(C)C(C)O)C(O)C1O (stereo not shown) [Example 2, 6-Sulphamoylhexyl monate A]	0.312 (≈ 0.615 µM)

System: P. mirabilis 889
Assay: MIC human bacteria (Table 1), serial dilution in nutrient agar
Assay type: cell-based
Settings: Proteus mirabilis, 889

SMILES	MIC [µg/mL]
C/C(=C\C(=O)OCCCCCCS(N)(=O)=O)CC1OCC(CC2OC2C(C)C(C)O)C(O)C1O (stereo not shown) [Example 2, 6-Sulphamoylhexyl monate A]	50 (≈ 98.5 µM)

System: Strep agalactiae SPA1
Assay: MIC veterinary bacteria (Table 2), serial dilution in agar
Assay type: cell-based
Settings: diagnostic sensitivity test agar

SMILES	MIC [µg/mL]
C/C(=C\C(=O)OCCCCCCS(N)(=O)=O)CC1OCC(CC2OC2C(C)C(C)O)C(O)C1O (stereo not shown) [Example 2, 6-Sulphamoylhexyl monate A]	1.25 (≈ 2.46 µM)

System: Corynebacterium pyogenes CY1
Assay: as above
Assay type: cell-based
Settings: Trueperella pyogenes, diagnostic sensitivity test agar

SMILES	MIC [µg/mL]
C/C(=C\C(=O)OCCCCCCS(N)(=O)=O)CC1OCC(CC2OC2C(C)C(C)O)C(O)C1O (stereo not shown) [Example 2, 6-Sulphamoylhexyl monate A]	10 (≈ 19.7 µM)

System: E. coli NCTC 10418
Assay: as above
Assay type: cell-based
Settings: Escherichia coli, NCTC10418; E. coli NCTC 10418; diagnostic sensitivity test agar; read-out: MIC

SMILES	MIC [µg/mL]
C/C(=C\C(=O)OCCCCCCS(N)(=O)=O)CC1OCC(CC2OC2C(C)C(C)O)C(O)C1O (stereo not shown) [Example 2, 6-Sulphamoylhexyl monate A]	> 80

System: Past multocida PA2
Assay: as above
Assay type: cell-based
Settings: diagnostic sensitivity test agar

SMILES	MIC [µg/mL]
C/C(=C\C(=O)OCCCCCCS(N)(=O)=O)CC1OCC(CC2OC2C(C)C(C)O)C(O)C1O (stereo not shown) [Example 2, 6-Sulphamoylhexyl monate A]	0.039 (≈ 0.0768 µM)

System: Strep pyogenes B 2788
Assay: MIC human bacteria (Table 1), serial dilution in nutrient agar
Assay type: cell-based
Settings: nutrient agar with 5% chocolated horse blood

SMILES	MIC [µg/mL]
C/C(=C\C(=O)OCCCCCCS(N)(=O)=O)CC1OCC(CC2OC2C(C)C(C)O)C(O)C1O (stereo not shown) [Example 2, 6-Sulphamoylhexyl monate A]	1 (≈ 1.97 µM)

System: Staph aureus 152 (pen. sens)
Assay: MIC veterinary bacteria (Table 2), serial dilution in agar
Assay type: cell-based
Settings: Staphylococcus aureus, diagnostic sensitivity test agar

SMILES	MIC [µg/mL]
C/C(=C\C(=O)OCCCCCCS(N)(=O)=O)CC1OCC(CC2OC2C(C)C(C)O)C(O)C1O (stereo not shown) [Example 2, 6-Sulphamoylhexyl monate A]	1.25 (≈ 2.46 µM)

System: Staph aureus Oxford
Assay: as above
Assay type: cell-based
Settings: Staphylococcus aureus; Staph aureus Oxford; diagnostic sensitivity test agar; read-out: MIC

SMILES	MIC [µg/mL]
C/C(=C\C(=O)OCCCCCCS(N)(=O)=O)CC1OCC(CC2OC2C(C)C(C)O)C(O)C1O (stereo not shown) [Example 2, 6-Sulphamoylhexyl monate A]	2.5 (≈ 4.92 µM)

System: S. dublin S7
Assay: as above
Assay type: cell-based
Settings: Salmonella enterica, diagnostic sensitivity test agar

SMILES	MIC [µg/mL]
C/C(=C\C(=O)OCCCCCCS(N)(=O)=O)CC1OCC(CC2OC2C(C)C(C)O)C(O)C1O (stereo not shown) [Example 2, 6-Sulphamoylhexyl monate A]	> 80

System: Strep pyogenes A 64/848
Assay: MIC human bacteria (Table 1), serial dilution in nutrient agar
Assay type: cell-based
Settings: nutrient agar with 5% chocolated horse blood

SMILES	MIC [µg/mL]
C/C(=C\C(=O)OCCCCCCS(N)(=O)=O)CC1OCC(CC2OC2C(C)C(C)O)C(O)C1O (stereo not shown) [Example 2, 6-Sulphamoylhexyl monate A]	0.5 (≈ 0.985 µM)

System: Strep uberis SPU1
Assay: MIC veterinary bacteria (Table 2), serial dilution in agar
Assay type: cell-based
Settings: diagnostic sensitivity test agar

SMILES	MIC [µg/mL]
C/C(=C\C(=O)OCCCCCCS(N)(=O)=O)CC1OCC(CC2OC2C(C)C(C)O)C(O)C1O (stereo not shown) [Example 2, 6-Sulphamoylhexyl monate A]	0.625 (≈ 1.23 µM)

System: Strep dysgalaciae SPD1
Assay: as above
Assay type: cell-based
Settings: diagnostic sensitivity test agar

SMILES	MIC [µg/mL]
C/C(=C\C(=O)OCCCCCCS(N)(=O)=O)CC1OCC(CC2OC2C(C)C(C)O)C(O)C1O (stereo not shown) [Example 2, 6-Sulphamoylhexyl monate A]	0.625 (≈ 1.23 µM)

System: Strep suis (group D) SPS11
Assay: as above
Assay type: cell-based
Settings: diagnostic sensitivity test agar

SMILES	MIC [µg/mL]
C/C(=C\C(=O)OCCCCCCS(N)(=O)=O)CC1OCC(CC2OC2C(C)C(C)O)C(O)C1O (stereo not shown) [Example 2, 6-Sulphamoylhexyl monate A]	2.5 (≈ 4.92 µM)

System: S. typhimurium S18
Assay: as above
Assay type: cell-based
Settings: Salmonella enterica, diagnostic sensitivity test agar

SMILES	MIC [µg/mL]
C/C(=C\C(=O)OCCCCCCS(N)(=O)=O)CC1OCC(CC2OC2C(C)C(C)O)C(O)C1O (stereo not shown) [Example 2, 6-Sulphamoylhexyl monate A]	> 80

System: Erysipelothrix rhusiopathiae NCTC 8163
Assay: as above
Assay type: cell-based
Settings: NCTC8163; Erysipelothrix rhusiopathiae NCTC 8163; diagnostic sensitivity test agar; read-out: MIC

SMILES	MIC [µg/mL]
C/C(=C\C(=O)OCCCCCCS(N)(=O)=O)CC1OCC(CC2OC2C(C)C(C)O)C(O)C1O (stereo not shown) [Example 2, 6-Sulphamoylhexyl monate A]	20 (≈ 39.4 µM)

System: Pasteurella multocida 1633
Assay: MIC human bacteria (Table 1), serial dilution in nutrient agar
Assay type: cell-based
Settings: Pasteurella multocida 1633; nutrient agar with 5% chocolated horse blood; read-out: MIC

SMILES	MIC [µg/mL]
C/C(=C\C(=O)OCCCCCCS(N)(=O)=O)CC1OCC(CC2OC2C(C)C(C)O)C(O)C1O (stereo not shown) [Example 2, 6-Sulphamoylhexyl monate A]	2.5 (≈ 4.92 µM)

System: Staph aureus W2827
Assay: as above
Assay type: cell-based
Settings: Staphylococcus aureus, nutrient agar with 5% chocolated horse blood

SMILES	MIC [µg/mL]
C/C(=C\C(=O)OCCCCCCS(N)(=O)=O)CC1OCC(CC2OC2C(C)C(C)O)C(O)C1O (stereo not shown) [Example 2, 6-Sulphamoylhexyl monate A]	5 (≈ 9.85 µM)

System: E. coli ESS
Assay: as above
Assay type: cell-based
Settings: Escherichia coli

SMILES	MIC [µg/mL]
C/C(=C\C(=O)OCCCCCCS(N)(=O)=O)CC1OCC(CC2OC2C(C)C(C)O)C(O)C1O (stereo not shown) [Example 2, 6-Sulphamoylhexyl monate A]	0.5 (≈ 0.985 µM)

System: Staph aureus B4 (pen. resis)
Assay: MIC veterinary bacteria (Table 2), serial dilution in agar
Assay type: cell-based
Settings: Staphylococcus aureus; Staph aureus B4 (pen. resis); diagnostic sensitivity test agar; read-out: MIC

SMILES	MIC [µg/mL]
C/C(=C\C(=O)OCCCCCCS(N)(=O)=O)CC1OCC(CC2OC2C(C)C(C)O)C(O)C1O (stereo not shown) [Example 2, 6-Sulphamoylhexyl monate A]	2.5 (≈ 4.92 µM)

System: Sarcina lutea 8340
Assay: MIC human bacteria (Table 1), serial dilution in nutrient agar
Assay type: cell-based
Settings: Micrococcus luteus, nutrient agar with 5% chocolated horse blood, read-out: MIC

SMILES	MIC [µg/mL]
C/C(=C\C(=O)OCCCCCCS(N)(=O)=O)CC1OCC(CC2OC2C(C)C(C)O)C(O)C1O (stereo not shown) [Example 2, 6-Sulphamoylhexyl monate A]	> 100

System: Haemophilus influenzae Q1
Assay: as above
Assay type: cell-based
Settings: Haemophilus influenzae, Q1

SMILES	MIC [µg/mL]
C/C(=C\C(=O)OCCCCCCS(N)(=O)=O)CC1OCC(CC2OC2C(C)C(C)O)C(O)C1O (stereo not shown) [Example 2, 6-Sulphamoylhexyl monate A]	0.1 (≈ 0.197 µM)

System: Strep pyogenes C 2761
Assay: as above
Assay type: cell-based
Settings: nutrient agar with 5% chocolated horse blood

SMILES	MIC [µg/mL]
C/C(=C\C(=O)OCCCCCCS(N)(=O)=O)CC1OCC(CC2OC2C(C)C(C)O)C(O)C1O (stereo not shown) [Example 2, 6-Sulphamoylhexyl monate A]	1 (≈ 1.97 µM)

System: Bacillus subtilis 6633
Assay: as above
Assay type: cell-based
Settings: nutrient agar with 5% chocolated horse blood

SMILES	MIC [µg/mL]
C/C(=C\C(=O)OCCCCCCS(N)(=O)=O)CC1OCC(CC2OC2C(C)C(C)O)C(O)C1O (stereo not shown) [Example 2, 6-Sulphamoylhexyl monate A]	0.5 (≈ 0.985 µM)

System: Strep faecalis I
Assay: as above
Assay type: cell-based
Settings: nutrient agar with 5% chocolated horse blood

SMILES	MIC [µg/mL]
C/C(=C\C(=O)OCCCCCCS(N)(=O)=O)CC1OCC(CC2OC2C(C)C(C)O)C(O)C1O (stereo not shown) [Example 2, 6-Sulphamoylhexyl monate A]	> 100

System: Staph aureus Oxford
Assay: as above
Assay type: cell-based
Settings: Staphylococcus aureus, nutrient agar with 5% chocolated horse blood

SMILES	MIC [µg/mL]
C/C(=C\C(=O)OCCCCCCS(N)(=O)=O)CC1OCC(CC2OC2C(C)C(C)O)C(O)C1O (stereo not shown) [Example 2, 6-Sulphamoylhexyl monate A]	5 (≈ 9.85 µM)

System: M hyorhinis ATCC 23234
Assay: in vitro anti-mycoplasmal MIC, Friis' agar (Table 3)
Assay type: cell-based
Settings: not given
Description: The minimum inhibitory concentrations (MIC) of the examples were determined by either:
or (ii) by serial dilution in Friis' agar medium.

SMILES	MIC [µg/mL]
C/C(=C\C(=O)OCCCCCCS(N)(=O)=O)CC1OCC(CC2OC2C(C)C(C)O)C(O)C1O (stereo not shown) [Example 2, 6-Sulphamoylhexyl monate A]	0.156 (≈ 0.307 µM)

System: Staph aureus Russell
Assay: MIC human bacteria (Table 1), serial dilution in nutrient agar
Assay type: cell-based
Settings: Staphylococcus aureus, nutrient agar with 5% chocolated horse blood

SMILES	MIC [µg/mL]
C/C(=C\C(=O)OCCCCCCS(N)(=O)=O)CC1OCC(CC2OC2C(C)C(C)O)C(O)C1O (stereo not shown) [Example 2, 6-Sulphamoylhexyl monate A]	5 (≈ 9.85 µM)

System: E. coli NCTC 10418
Assay: as above
Assay type: cell-based
Settings: Escherichia coli, NCTC10418; E. coli NCTC 10418; nutrient agar with 5% chocolated horse blood; read-out: MIC

SMILES	MIC [µg/mL]
C/C(=C\C(=O)OCCCCCCS(N)(=O)=O)CC1OCC(CC2OC2C(C)C(C)O)C(O)C1O (stereo not shown) [Example 2, 6-Sulphamoylhexyl monate A]	> 100

System: Bord bronchiseptica B09
Assay: MIC veterinary bacteria (Table 2), serial dilution in agar
Assay type: cell-based
Settings: diagnostic sensitivity test agar

SMILES	MIC [µg/mL]
C/C(=C\C(=O)OCCCCCCS(N)(=O)=O)CC1OCC(CC2OC2C(C)C(C)O)C(O)C1O (stereo not shown) [Example 2, 6-Sulphamoylhexyl monate A]	10 (≈ 19.7 µM)

System: Ps. aeruginosa 10662
Assay: MIC human bacteria (Table 1), serial dilution in nutrient agar
Assay type: cell-based
Settings: Pseudomonas aeruginosa, nutrient agar with 5% chocolated horse blood

SMILES	MIC [µg/mL]
C/C(=C\C(=O)OCCCCCCS(N)(=O)=O)CC1OCC(CC2OC2C(C)C(C)O)C(O)C1O (stereo not shown) [Example 2, 6-Sulphamoylhexyl monate A]	> 100
